Marks after values point to notes of the source that are not given here.

Data set [1] deals with Bcl-2 family and PKC isoform mRNA. Nature of the data set: Gene expression by quantitative real-time RT-PCR in serum-free PC12 cells. Format: cell-based, rat. The method, then: (vi) Total RNA extraction. PC12 cells were cultured in DMEM containing 5% FCS and 10% horse serum until confluence. At the day of the experiment, the medium was replaced with fresh medium without serum and rasagiline or propargylamine at various concentrations were administered for 24 h. At the end of incubation, the medium was removed and isolation of total RNA was performed, using Tri Reagent™ Isolation reagent. Total RNA was treated with DNase-RNase free (Roche Diagnostics, Mannheim, Germany) for 30 min at 37° C. and subsequently extracted by a round of phenol:chlorophorm:isoamylalcohol (25:24:1), followed by one of chloroform. After precipitation with NaOAc (0.3 M) and ethyl alcohol, the RNA pellet was washed with 80% ethyl alcohol (12,000×g) for 10 min and resuspended in 50-100 μl of diethylpyrocarbonate (DEPC)-treated water and incubated for 5-10 min at 56° C. to facilitate resuspension.
(vi) Reverse transcription (RT) and quantitative real-time RT-PCR. In order to confirm the results obtained with the customized cDNA expression micro-array, 2 μg of total RNA were denatured and reverse transcribed using random hexanucleotides (0.5 μg/μl). Secondary structures of the template and primer (total volume of 16 μl) were opened by incubation for 5 min at 70° C. and immediately cooled on ice. Reaction mix (9 μl) containing reaction buffer, dNTP (0.5 mm each), RNAasin™ RNAase inhibitor (Promega) (25U) and M-MLV reverse transcriptase (200U) was added and samples were incubated at 39° C. for 1 h. For every RNA preparation a negative control was run in parallel consisting of a direct amplification of the RNA sample, omitting the RT step. The samples were transferred to 92° C. for 10 min, in order to deactivate the enzyme, and then cooled to 4° C.
Quantitative real-time PCR, using LightCycler and FastStart DNA Master SYBR Green I ready-to use PCR mix, was performed according to the manufacture's protocol (Roche Diagnostics, Mannheim, Germany). cDNA (40 ng) was amplified in 20 μl total volume. The sequences of the primers and the size of the products are described in Table 1. The results are analyzed on the provided program of the LightCycler. The relative expression level of a given mRNA was assessed by normalizing to the housekeeping gene 18S-rRNA and compared with control values.
In this experiment, we examined whether Bcl-2 family proteins mediate the pro-survival effect of rasagiline, using serum-starved rat pheochromocytoma PC12 cell line as a model of neuronal apoptosis. PC12 cells were maintained in full-serum (control), or in serum-free (SF) media in the absence or presence of various concentrations of rasagiline (0.001, 0.1, 1 and 10 μM) for 3 h or 24 h, and gene expression was measured by quantitative real-time RT-PC. The real-time RT-PCR consists of RNA samples isolated from said PC-12 cells. Each gene expression was normalized to the housekeeping gene, 18S-rRNA, since this transcript was reported to be less susceptible to the influence by external factors.
The effect of propargylamine on Bad and Bax mRNA levels was examined as described in Example 5 above.

The next data set deals with sAPPα. The data set can be described thus: sAPPα release into medium of SH-SY5Y neuroblastoma cells. It is filed as cell-based, human. Particulars: 3 h; for sAPPα secretion (fold/basal): 1 μM, SH-SY5Y conditioned media, mean ± SE of three experiments. On the procedure: For the experiments, cells were seeded (2×10^6) onto 100-mm plates (for SH-SY5Y cells) or T75 flasks (for PC12 cells) in culture medium supplemented with full serum for 48 h. The cells were replaced with fresh medium containing 0.5% FCS for an additional 24 h (subconfluent culture), and then the experiments were performed in fresh medium containing 0.5% FCS for the indicated time periods at 37° C. After incubation with various drugs, the conditioned media were collected, centrifuged at 3500 g (10 min, 4° C.) to remove cell debris, and the cleared supernatants were concentrated 10-fold by lyophilization.
(vii) Determination of sAPP. Protein concentrations of cell lysates were assayed using Bradford reagent (Sigma Chemical). Equal amounts of volumes of conditioned medium, standardized to lysate protein, were subjected to […], using either the MAbs 22C11 or 6E10 in 50 mM Tris-HCl, pH 7.4, 150 mM NaCl, containing 0.05% Tween 20 and 1% BSA. Immunoreactivity was detected using anti-mouse IgG-conjugated with HRP and an enhanced chemiluminescence method (Amersham, Pharmacia Biotech, UK). Blots were developed for different times to span a linear range of response, and the relative intensity of immunoreactive bands on the exposed films was quantified by computer-assisted densitometry program (Quantity One, Bio-Rad, Hercules, Calif., USA).
It was of interest to determine whether rasagiline and other propargylamine-containing drugs also regulate APP processing. For this purpose, SH-SY5Y neuroblastoma cells were incubated for 3 h without or with 1 μM of various drugs (TV3326 and its S-isomer TV3279, rasagiline and its S-isomer TVP1022, selegiline, aminoindan), and sAPPα was measured in the media as described in Materials and Methods.
We further characterized, in detail, the effect of rasagiline on APP processing and the signaling pathways that are involved. Thus, SH-SY5Y neuroblastoma cells were incubated for 3 h without or with increasing concentrations of rasagiline (0.1, 1 and 10 μM), and sAPPα was measured in the media as described in Materials and Methods.
For the sAPPα release, SH-SY5Y neuroblastoma cells or PC12 cells were incubated for 3 h without or with increasing concentrations of propargylamine (0.1, 1 and 10 μM), and sAPPα was measured in the media as described in Materials and Methods.

The next data set relates to MAPK. The data set can be described thus: MAPK activation (phospho-p44/42 MAPK immunoblot) in PC12 cells. It is filed as cell-based, rat. On the procedure: (viii) Extracellular signal-regulated kinase (ERK) activity. The kinase activity of the ERKs was measured using the MAPK assay kit (Cell Signaling Technology) according to the manufacturer's protocol. In brief, for kinase activity assays, PC12 cells were grown in 6-well plates (5×10^5 cells/well). Eighteen to twenty-four hours before experiments, the medium was replaced with DMEM with 0.5% FCS and treated as described in the figures. Experimental treatments were performed in 1 ml medium containing 0.5% FCS, with the vehicle or test drugs and/or inhibitors at 37° C., as described in the figures. After treatment, reactions were stopped by placing cells on ice and aspirating the medium. Cells were harvested in 50 mM Tris-HCl, pH 8.0, 150 mM NaCl, 5 mM EDTA, 1 mM DTT, 1% Triton X-100, and protease- and phosphatase-inhibitor cocktails. Protein concentration was determined by the Bradford method. As described previously (Yogev-Falach et al., 2002), each cell lysate, containing 30 μg protein, was separated on 4-12% SDS-polyacrylamide electrophoresis gels, immunoblotted, and identified using phospho-p44/42 MAPK (Thr202/Tyr204) antibody or p44/42 MAPK antibody. Data are representative of three to six independent experiments.
To study the effect of rasagiline on MAPK activation, PC12 cells were treated for 0.5 h with increasing concentrations of rasagiline (0.1, 1 and 10 μM), and quantification of the phospho-MAPK blots were normalized using the total MAPK blots, or PC12 cells were preincubated for 15 min with vehicle alone, or with PD98059 (30 μM) or GF109203X (2.5 μM) and then incubated without or with rasagiline (10 μM) for 0.5 h. Aliquots of cell lysates were then subjected to immunoblot analysis and probed with anti-phospho-MAPK (top blots) and anti-MAPK (bottom blots).
For the effect of propargylamine on MAPK activation, PC12 cells were treated for 0.5 h with increasing concentrations of propargylamine (0.1, 1 and 10 μM). Aliquots of cell lysates were then subjected to immunoblot analysis and probed with anti-phospho-MAPK and anti-MAP kinase. Quantification of the phospho-MAPK were normalized using the total MAPK blots.

The test system of the next data set is PC12 cells. Particulars: PC12, 10 μM, 24 h.
Data set [2] relates to p-PKC (pan), PKCα and PKCε. The data set can be described thus: PKC translocation to membrane fraction of PC12 cells. Particulars: PC12, 100 nM, 2 h. Format: cell-based, rat. On the procedure:
(v) PKC translocation. Cells were cultured to confluence and treated for 2 h with either no drug (control), phorbol 12-myristate-13-acetate (PMA) (positive control) or rasagiline. After washing, the cells were harvested, collected by centrifugation (5 min, 1500 rpm), and homogenized by sonication (12 s, 22μ) in homogenization buffer (20 mM Tris-HCl, pH 7.4, 0.32 M sucrose, 2 mM EDTA, 50 mM β-mercaptoethanol) containing a protease inhibitor cocktail (Sigma Aldrich, Sweden). Cytosolic and particulate fractions were separated by ultracentrifugation (30 min, 100,000 g, 4° C.). For the particulate fraction, proteins were extracted by a 45 min incubation on ice in homogenization buffer containing 0.5% Triton X-100. Samples were then sonicated for 1 min and equivalent amounts of protein (15 μg) separated by PAGE followed by blotting onto nitrocellulose paper. Western blotting was performed essentially as described above using antibodies against p-PKC (pan), PKCα and PKCε.
PKC translocation to the membrane fraction upon activation and membrane localization is often used as a marker for PKC activation.

As to `C#CCN[C@@H]1CCc2ccccc21` [Rasagiline, N-propargyl-(1R)-aminoindan], the “Bad mRNA reduction” value in data set [1] (1 μM, 3 h) is 1.35 fold vs. serum free treatment; in data set [1] (0.01 and 0.1 μM, 24 h) it was ~2.5 fold vs. serum free culture. For the same compound, in data set [1] (10 μM, 24 h, compared to serum-free culture), the “Bcl-xL mRNA expression increase” value is given as “about 2 fold”. In addition, in data set [1] (0.1, 1 and 10 μM, 24 h), the “Bcl-W mRNA expression” value is reported as 135 % of serum-free culture. For the same compound, the “sAPPα secretion (fold/basal)” value in the data set on sAPPα is 2.97 ± 0.15^b fold/basal. Also, in the data set on sAPPα (SH-SY5Y, 10 μM (maximal effect)), the “increase in sAPPα secretion over the basal levels” value is reported as ~3.0 fold. Further, the “lowest dose giving MAPK activation” value in the data set on MAPK (PC12, 0.5 h) was 0.1 µM.
Consider `C#CCN(C)[C@H](C)Cc1ccccc1` [Selegiline, R-(−)-N-methyl-N-(prop-2-ynyl)-2-aminophenylpropane], for which the “sAPPα secretion (fold/basal)” value with sAPPα was 2.03 ± 0.21^c fold/basal.
As to `C#CCN[C@H]1CCc2ccc(OC(=O)N(C)CC)cc21` [TV3279], in the data set with sAPPα, the “sAPPα secretion (fold/basal)” value is given as 2.76 ± 0.36^b fold/basal.
With “Aβ1-42: amyloidogenic Aβ peptide, used as toxic insult”, the cell viability in the data set with PC12 cells is given as 66 % of control.
In the case of `CCCCCCCCCCCCCC(=O)O[C@@H]1[C@@H](C)[C@@]2(O)[C@@H](C=C(CO)C[C@]3(O)C(=O)C(C)=C[C@@H]23)[C@@H]2C(C)(C)[C@]12OC(C)=O` [PMA, phorbol 12-myristate-13-acetate], in data set [2], the “translocation of PKCα” value stood at 157%, the “translocation of PKCε” value amounted to 212% and the “translocation of p-PKC (pan)” value is 214%.
`C#CCN[C@@H]1CCc2ccc(OC(=O)N(C)CC)cc21` [TV3326, (N-propargyl-(3R)aminoindan-5yl)-ethyl methyl carbamate]: in the data set on sAPPα, the “sAPPα secretion (fold/basal)” value is on record as 2.86 ± 0.35^b fold/basal.
As for `COc1cccc(-c2cc(=O)c3ccccc3o2)c1N` [PD98059], the “effect on rasagiline-induced MAPK phosphorylation” value with MAPK (PC12, pretreatment 30 μM, rasagiline 10 μM 0.5 h) is “blocked the rasagiline-induced increase of MAPK phosphorylation”.
`NC1CCc2ccccc21` (stereo not drawn) [Aminoindan, aminoindan]: the “sAPPα secretion (fold/basal)” value with sAPPα is 1.23 ± 0.32 fold/basal. Further, in the data set on sAPPα (SH-SY5Y, 0.1, 1 and 10 μM, versus untreated cells), the “sAPPα released into the medium” value was “did not show such effects”. Further, the MAPK phosphorylation result with MAPK (PC12, 0.1, 1 and 10 μM, 0.5 h) is reported as “did not show such effects”.

(Values after patent US20050191348A1 (priority 2004, published 2005).)
